pIC50: −log10 of the molar value.
These molecules were tested against T1, human CRTH2 (Homo sapiens, UniProt Q9Y5Y4) (assay: Human CRTH2 Receptor Binding Assay). Conditions: whole cell binding, CHO-K1 cells expressing human CRTH2, 20 nM [3H]ramatroban as competing radioligand.
T1 construct: expressed in transfected cells
T1 sequence (Q9Y5Y4 1-395): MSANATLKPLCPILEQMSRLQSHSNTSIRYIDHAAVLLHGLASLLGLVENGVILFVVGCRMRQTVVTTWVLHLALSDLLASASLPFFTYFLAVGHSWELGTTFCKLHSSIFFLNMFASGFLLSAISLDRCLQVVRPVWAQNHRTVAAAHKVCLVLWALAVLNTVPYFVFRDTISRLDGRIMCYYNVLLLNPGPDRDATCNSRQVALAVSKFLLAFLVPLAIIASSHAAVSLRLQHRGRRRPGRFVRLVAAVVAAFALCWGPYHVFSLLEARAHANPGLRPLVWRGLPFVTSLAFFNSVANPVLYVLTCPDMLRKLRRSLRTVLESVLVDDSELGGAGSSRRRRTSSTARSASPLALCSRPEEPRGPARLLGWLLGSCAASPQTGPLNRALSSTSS
Source text: A whole cell receptor binding assay using [^3H]ramatroban as the competing radioactive ligand was employed to evaluate the compound binding activity to human CRTH2. The radioactive ligand [^3H]ramatroban was synthesized according to Sugimoto et. al. (Eur. J. Pharmacol. 524, 30-37, 2005) to a specific activity of 42 Ci/mmol.
A cell line stably expressing human CRTH2 was established by transfecting CHO-K1 cells with two mammalian expression vectors that harbored human CRTH2 and G-alpha16 cDNAs, respectively, using FuGene® 6 transfection reagent (from Roche). Stable clones expressing CRTH2 were selected by staining each clone with BM16 (BD Pharmingen™ from BD Biosciences, a division of Becton, Dickinson and Company), which is a rat monoclonal antibody to human CRTH2. The cells were maintained as monolayer cultures in Ham's F-12 medium containing 10% fetal bovine serum, 100 units/mL penicillin, 100 μg/mL streptomycin, 2 mM glutamine, 0.5 mg/mL G418 (geneticin) for CRTH2, and 0.2 mg/mL hygromycin-B (for G-alpha 16). For whole cell receptor binding assay, the monolayer cells were rinsed once with PBS (phosphate buffered saline), dissociated using ethylenediaminetetraacetate (Versene™ EDTA from the Lonza Inc.), and suspended in PBS containing 10 mM MgCl2 and 0.06% BSA (bovine serum albumin) at 1.5×10^6 cells/mL.
The binding reactions (0.2 mL) were performed in 96-well plates at room temperature in PBS containing 1.5×10^5 cells, 10 mM MgCl2, 0.06% BSA, 20 nM [^3H]ramatroban, and test compound at various concentrations. After 1 hour of binding reactions, the cells were harvested on GF™/B filter microplates (microtiter plates with embedded glass fiber from PerkinElmer, Inc.) and washed 5 times with PBS using a Filtermate™ Harvester (a cell harvester that harvests and washes cells from microplates from PerkinElmer, Inc.). The radioactivities bound to the cells were determined using a microplate scintillation counter (TopCount® NXT, from PerkinElmer, Inc.) after adding 50 μL of Microscint™ 20 scintillation fluid (from PerkinElmer, Inc.) to each well of the filter plates. The radioactivity from non-specific binding was determined by replacing compound with 10 μM of 15(R)-15-methyl PGD2 (from Cayman Chemical Company) in the reaction mixtures. The radioactivity bound to the cells in the absence of compound (total binding) was determined by replacing compound with 0.25% of DMSO (dimethyl sulfoxide) in the reaction mixture. Specific binding data were obtained by subtracting the radioactivity of non-specific binding from each binding data.
The IC50 value is defined as the concentration of the tested compound that is required for 50% inhibition of total specific binding. In order to calculate the IC50 value, the percent inhibition data were determined for 7 concentrations for each compound. The percent inhibition for a compound at each concentration was calculated according to the following formula, [1-(specific binding in the presence of compound)/(total specific binding)]×100. The IC50 value was then obtained by fitting the percent inhibition data to a sigmoidal dose-response (4 parameter logistic) model in the XLfit® software Excel add-in program [from ID Business Solutions Ltd., model 205, where F(x)=(A+(B−A)/(1+((C/x)^D)))].

Question: With `O=C(O)COc1cccc2c1CCCC2NS(=O)(=O)c1ccc(-c2ccc(OC(F)(F)F)cc2)cn1` (stereo not shown) [Example 3-62, {5-[5-(4-Trifluoromethoxy-phenyl)-pyridine-2-sulfonylamino]-5,6,7,8-tetrahydro-naphthalen-1-yloxy}-acetic acid] as the molecule, how does the pIC50 read?
Answer: 7.15

Question: `C[S+]([O-])c1cccc(-c2ccc(S(=O)(=O)N[C@@H]3CCCc4c(OCC(=O)O)cccc43)cc2)c1` (stereo partly drawn) [Example 4-1, [(R)-5-(3′-Methanesulfinyl-biphenyl-4-sulfonylamino)-5,6,7,8-tetrahydro-naphthalen-1-yloxy]-acetic acid] was tested. Which pIC50 did it give?
Answer: 7.87

Question: With `CN([C@@H]1CCCc2c(OCC(=O)O)cccc21)S(=O)(=O)c1ccc(Oc2ccc(Cl)cc2)c(Cl)c1` [Example 6-1, ((R)-5-{[3-Chloro-4-(4-chloro-phenoxy)-benzenesulfonyl]-methyl-amino}-5,6,7,8-tetrahydro-naphthalen-1-yloxy)-acetic acid] as the molecule, how does the pIC50 read?
Answer: 6.83

Question: With `CN([C@@H]1CCCc2c(OCC(=O)O)cccc21)S(=O)(=O)c1cc(C(F)(F)F)cc(S(=O)(=O)c2ccc(Cl)cc2)c1` [Example 8-1, ((R)-5-{[3-(4-Chloro-benzenesulfonyl)-5-trifluoromethyl-benzenesulfonyl]-methyl-amino}-5,6,7,8-tetrahydro-naphthalen-1-yloxy)-acetic acid] as the molecule, how does the pIC50 read?
Answer: 8.54

— patent US8163781B2, “Bi-aryl aminotetralines” (Hoffman-La Roche Inc., priority 2008, dated 2012)
